Assay results as given in PubChem BioAssay (NCI).
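Five compound concentrations were applied to cells in 96-well plates for 48 hours; endpoints were derived by simple linear interpolation of the resulting dose-response curve. TGI denotes the concentration required for complete inhibition of growth.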

Experiments:
Assay in all cases: NCI-60 cell line screen, 48 h
BT-549 breast = tested on: BT-549 breast
LOX IMVI melanoma = tested on: LOX IMVI melanoma
SK-OV-3 ovarian = tested on: SK-OV-3 ovarian
SK-MEL-28 melanoma = tested on: SK-MEL-28 melanoma
U251 CNS = tested on: U251 CNS
HOP-62 NSCLC = tested on: HOP-62 NSCLC
MDA-MB-435 = tested on: MDA-MB-435
KM12 colon = tested on: KM12 colon
CCRF-CEM leukemia = tested on: CCRF-CEM leukemia
DU-145 prostate = tested on: DU-145 prostate

SMILES | TGI (BT-549 breast) [µM] | TGI (LOX IMVI melanoma) [µM] | TGI (SK-OV-3 ovarian) [µM] | TGI (SK-MEL-28 melanoma) [µM] | TGI (U251 CNS) [µM] | TGI (HOP-62 NSCLC) [µM] | TGI (MDA-MB-435) [µM] | TGI (KM12 colon) [µM] | TGI (CCRF-CEM leukemia) [µM] | TGI (DU-145 prostate) [µM]
N#Cc1ccc(Oc2nc3ccc(C(F)(F)F)cc3nc2-c2ccccc2)cc1 | > 100 | 91.1 | 26.9 | 30.2 | 30.9 | 36 | 33.8 | 48.6 | 44.7 | 34
S=C(Nc1ccccn1)Nc1ccccc1Cl | > 100 | > 100 | > 100 | > 100 | > 100 | > 100 | > 100 | > 83.4 | > 100 | > 100
CC[C@@]12C=CC(=S)N(CCSc3ccccc3)[C@@H]1c1c(n(S(=O)(=O)c3ccc(OC)cc3)c3ccccc13)CC2 | > 100 | > 100 | > 100 | > 100 | > 100 | > 100 | > 100 | > 100 | > 100 | > 100
CC(C)(C)[C@H]1CCC2(OCCO2)[C@](O)(CCCO)C1 | > 100 | > 100 | > 100 | > 100 | > 100 | > 100 | > 100 | > 100 | > 100 | > 100
CCN1CCC(O)(c2ccc(Oc3ccc(C)cc3)cc2)C(C(=O)c2ccc(Oc3ccc(C)cc3)cc2)C1 (stereo not given) | 22.4 | 13.5 | 29.7 | 23.3 | 23.7 | 35.5 | 24.9 | 17.8 | 21.8 | 20.1
CC1(C)CCC(=O)NC1CC(=O)CC1NC(=O)CCC1(C)C (stereo not given) | > 100 | > 100 | > 100 | > 100 | > 100 | > 100 | > 100 | > 100 | > 100 | > 100
COc1ccc(-c2cc(-c3cc(F)c(Cl)cc3Cl)on2)cc1OC | > 100 | > 100 | > 100 | > 100 | > 100 | > 100 | 16.9 | > 100 | > 100 | > 100
O=C1C(NCCN2CCOCC2)=C(Cl)C(=O)c2ncccc21 | 2.57 | 0.928 | 2.73 | 2.99 | 2.23 | 3.63 | 0.343 | 2.61 | 1.1 | 2.17
CC(=O)N1c2ccccc2C(C)C1c1[nH]c2ccccc2c1C (stereo not given) | 58.1 | > 100 | 43.9 | 49.3 | 51.5 | 36.6 | 50.4 | 38.4 | > 100 | > 100
N=c1c2c(=S)n(-c3ccccc3)c(=S)n(-c3ccccc3)c2nc(SCCN2CCOCC2)n1-c1ccccc1 | 4.51 | 3.71 | 15 | 4.39 | 3.93 | 4.96 | 3.4 | 6.09 | 3.19 | 3.22
Cc1ccc(S(=O)(=O)N2CCNCCN(S(=O)(=O)c3ccc(C)cc3)CCN(S(=O)(=O)c3ccc(C)cc3)CC2)cc1 | > 100 | > 100 | > 100 | > 100 | > 100 | > 100 | > 100 | > 100 | > 100 | > 100
C#CCn1c(=O)c(Cl)cn(/C(=C/C(=O)OCC)C(=O)OCC)c1=O | 35.7 | 19.9 | > 61.6 | 38.9 | 35 | 37.8 | 35.8 | > 70.5 | 13.3 | 33
CC(C)C1CC[C@H](C)C[C@@H]1OC(=O)C(C(=O)O[C@H]1C[C@@H](C)CCC1C(C)C)C(O)[C@@H]1OC(C)(C)O[C@H]1C1COC(C)(C)O1 (stereo not given in full) | 34.2 | 35.5 | 65.4 | 35.4 | 27.2 | 37.5 | 32 | 31.6 | 50.2 | 44.5
CCN(CC)CCCOc1cc2c(cc1OC)C(=O)N1CCC[C@H]1C=N2 | 76.1 | 31.3 | > 100 | 45.9 | > 100 | 92.1 | 59.6 | 48.4 | 87.5 | > 100
C=CCN(c1cc(OC)c2[nH]cc(C)c2c1[N+](=O)[O-])S(C)(=O)=O | > 100 | > 100 | > 100 | > 100 | > 100 | > 100 | > 100 | > 100 | > 100 | > 100
CC(=O)OCC1=C(C)C[C@H]([C@@H](COC(C)=O)C2CCC3C4C[C@H]5O[C@]56CC=CC(=O)[C@]6(C)C4CC[C@@]32C)OC1=O (stereo not given in full) | 3.65 | 0.552 | 6.93 | 1.19 | 1.05 | 1.91 | 0.721 | 0.593 | 0.353 | 1.41
COC(=O)c1cc(C(=CCC[C@H]2CC[C@@]3(C)C(CCC4C3CC[C@@]3(C)C4CC[C@@H]3C(C)CCCC(C)C)C2)c2cc(Cl)c(OC(=O)c3ccccc3)c(C(=O)OC)c2)cc(Cl)c1OC(=O)c1ccccc1 (stereo not given in full) | > 10 | > 10 | > 10 | > 10 | > 10 | > 10 | > 10 | > 10 | > 10 | > 10

SMILES | TGI (BT-549 breast) [µM] | TGI (LOX IMVI melanoma) [µM] | TGI (SK-OV-3 ovarian) [µM] | TGI (SK-MEL-28 melanoma) [µM] | TGI (U251 CNS) [µM] | TGI (HOP-62 NSCLC) [µM] | TGI (MDA-MB-435) [µM] | TGI (KM12 colon) [µM] | TGI (CCRF-CEM leukemia) [µM] | TGI (DU-145 prostate) [µM]
Cc1nc2ccccc2n1Cc1nnc(N)o1 | > 100 | > 100 | > 100 | > 100 | > 100 | > 100 | 21.3 | > 100 | > 100 | > 100
Cc1cc2nc(N3C(=O)/C(=C/c4ccc(Cl)cc4)N=C3c3ccccc3)sc2cc1C | 81.7 | 56.2 | > 100 | > 100 | 84.7 | > 100 | 30.7 | 92.3 | 38.7 | > 100
c1ccc2nc(CCC3CCCCN3)ccc2c1 (stereo not given) | > 100 | > 100 | > 100 | > 100 | > 100 | > 100 | > 100 | > 100 | > 100 | > 100
COc1cc2c(cc1OC)-c1cc3cc(OC)c(OC)cc3c(=O)n1CC2 | > 100 | > 100 | > 100 | > 100 | > 100 | > 72.8 | > 100 | > 100 | > 100 | > 51.5
O=C(OCCC12CC3CC(CC(C3)C1)C2)c1ccc(NCc2cc(O)ccc2O)cc1 | 0.684 | 4.37 | 13.1 | 2.24 | 2.95 | 13.4 | 3.84 | 3.43 | 15.9 | 13.7
Clc1nc(Cl)c(CBr)c(Cl)n1 | 4.17 | 4.14 | 29 | 19.9 | 14.6 | 9.72 | 17 | 7.87 | 3.41 | 30.6
CC1(CC2=C(C(=O)NCCO[Si](C)(C)C(C)(C)C)C3(OCCO3)C2=O)OCCO1 | > 100 | > 100 | > 100 | > 100 | > 100 | > 100 | > 100 | > 100 | > 100 | > 100
CC(=O)O[C@H]1C[C@H]2C(=S)Nc3ccccc3C(=S)N2C1 | > 100 | > 100 | > 100 | > 100 | > 100 | > 100 | > 100 | > 100 | > 100 | > 100
COC(=O)c1ccccc1C1CN=NC12Cc1cccc(C)c1C2=O (stereo not given) | > 100 | > 100 | > 100 | > 100 | > 100 | > 100 | > 100 | > 100 | > 100 | > 100
Nn1c(Cc2ccccc2)n[nH]c1=O | > 100 | > 100 | > 100 | > 100 | > 100 | > 100 | > 100 | > 100 | > 100 | > 100
C(=C\c1cc(-c2ccc3ccccc3n2)nc2ccc3ccccc3c12)/c1ccc2ccccc2n1 | > 100 | > 100 | > 100 | > 100 | > 100 | > 100 | > 100 | > 100 | > 100 | > 100
CCOC(=O)Cn1c(=O)c2cc(-c3ccccc3)cc3c(Cl)nc4c(OC)c(OC)cc1c4c32 | 38.3 | 26.4 | > 100 | 55.4 | > 100 | > 100 | 38.3 | > 92.8 | > 56.9 | > 61
Oc1cccc(-c2cn3cc(C(F)(F)F)ccc3n2)c1 | > 100 | > 100 | > 100 | > 100 | > 100 | > 100 | > 100 | > 100 | 77.5 | 72.5
Nc1ccc(Oc2ccc(C34CC5CC6C3CC3CC4C(C5)C6(c4ccc(Oc5ccc(N)c(O)c5)cc4)C3)cc2)cc1O | 20.9 | > 34.9 | 21.7 | 23.6 | 13.6 | 18.3 | 29.3 | 47.8 | 40.3 | > 43.5
c1ccc(-c2cc(-c3cccs3)c(-c3cccs3)o2)cc1 | > 100 | > 100 | > 100 | > 100 | > 100 | > 100 | > 100 | > 100 | > 100 | > 100
Clc1c(C(Cl)(Cl)Cl)nsc1N1CCCCC1 | 48.4 | 32.5 | 78.9 | > 100 | > 100 | 73.8 | 66.1 | 55.7 | 40.5 | > 100
CCc1nc2ccc(C(F)(F)F)cc2[nH]c1=O | > 100 | > 100 | > 100 | > 100 | > 100 | > 100 | > 100 | > 100 | > 100 | > 100
